Data from patent US20250243196A1, “CITRON KINASE INHIBITORS” (The Cleveland Clinic Foundation, priority 2021, published 2025).

Tests used:
Assay in all cases: KinaseProfiler panel
Assay type in all cases: biochemical
Conditions in all cases: activity remaining
Plk1(h) = Plk1(h) (Homo sapiens (Human), UniProt P53350); set-up: dose or concentration left out as unconfirmed
TSSK3(h) = TSSK3(h) (Homo sapiens (Human), UniProt Q96PN8); set-up: dose or concentration left out as unconfirmed
PhKγ2(h) = PhKγ2(h) (Homo sapiens (Human), UniProt P15735); set-up: dose or concentration left out as unconfirmed
TNIK(h) = TNIK(h) (Homo sapiens (Human), UniProt Q9UKE5)
CDK13/cyclinK(h) = CDK13/cyclinK(h) (Homo sapiens (Human), UniProt Q14004); set-up: dose or concentration left out as unconfirmed
PRK1(h) = PRK1(h) (Homo sapiens (Human), UniProt Q16512); set-up: dose or concentration left out as unconfirmed
CK1ε(h) = CK1ε(h) (Homo sapiens (Human), UniProt P49674); set-up: dose or concentration left out as unconfirmed
RIPK1(h) = RIPK1(h) (Homo sapiens (Human), UniProt Q13546); set-up: dose or concentration left out as unconfirmed
DRAK1(h) = DRAK1(h) (Homo sapiens (Human), UniProt Q9UEE5)
Fer(h) = Fer(h) (Homo sapiens (Human), UniProt P16591); set-up: dose or concentration left out as unconfirmed
EphA7(h) = EphA7(h) (Homo sapiens (Human), UniProt Q15375); set-up: dose or concentration left out as unconfirmed
PDGFRα(h) = PDGFRα(h) (Homo sapiens (Human), UniProt P16234); set-up: dose or concentration left out as unconfirmed
PKCβI(h) = PKCβI(h) (Homo sapiens (Human), UniProt P05771); set-up: dose or concentration left out as unconfirmed
CDK3/cyclinE(h) = CDK3/cyclinE(h) (Homo sapiens (Human), UniProt Q00526); set-up: dose or concentration left out as unconfirmed
MRCKγ(h) = MRCKγ(h) (Homo sapiens (Human), UniProt Q6DT37); set-up: dose or concentration left out as unconfirmed
LIMK1(h) = LIMK1(h) (Homo sapiens (Human), UniProt P53667); set-up: dose or concentration left out as unconfirmed
BRK(h) = BRK(h) (Homo sapiens (Human), UniProt Q13882); set-up: dose or concentration left out as unconfirmed
LKB1(h) = LKB1(h) (Homo sapiens (Human), UniProt Q15831); set-up: dose or concentration left out as unconfirmed
HIPK2(h) = HIPK2(h) (Homo sapiens (Human), UniProt Q9H2X6); set-up: dose or concentration left out as unconfirmed
IGF-1R(h), activated = IGF-1R(h), activated (Homo sapiens (Human), UniProt P08069); set-up: dose or concentration left out as unconfirmed
Aurora-A(h) = Aurora-A(h) (Homo sapiens (Human), UniProt O14965); set-up: dose or concentration left out as unconfirmed
SBK1(h) = SBK1(h) (Homo sapiens (Human), UniProt Q52WX2); set-up: dose or concentration left out as unconfirmed
PAK3(h) = PAK3(h) (Homo sapiens (Human), UniProt O75914); set-up: dose or concentration left out as unconfirmed
ROCK-I(h) = ROCK-I(h) (Homo sapiens (Human), UniProt Q13464); set-up: dose or concentration left out as unconfirmed
ALK(h) = ALK(h) (Homo sapiens (Human), UniProt Q9UM73)
MAPKAP-K3(h) = MAPKAP-K3(h) (Homo sapiens (Human), UniProt Q16644); set-up: dose or concentration left out as unconfirmed
ZIPK(h) = ZIPK(h) (Homo sapiens (Human), UniProt O43293); set-up: dose or concentration left out as unconfirmed
SIK3(h) = SIK3(h) (Homo sapiens (Human), UniProt Q9Y2K2); set-up: dose or concentration left out as unconfirmed
Pyk2(h) = Pyk2(h) (Homo sapiens (Human), UniProt Q14289); set-up: dose or concentration left out as unconfirmed
CLK1(h) = CLK1(h) (Homo sapiens (Human), UniProt P49759); set-up: dose or concentration left out as unconfirmed
DAPK2(h) = DAPK2(h) (Homo sapiens (Human), UniProt Q9UIK4)
Aurora-C(h) = Aurora-C(h) (Homo sapiens (Human), UniProt Q9UQB9)
MAP4K5(h) = MAP4K5(h) (Homo sapiens (Human), UniProt Q9Y4K4); set-up: dose or concentration left out as unconfirmed

Sequence of PDGFRα(h) (P16234 24-1089): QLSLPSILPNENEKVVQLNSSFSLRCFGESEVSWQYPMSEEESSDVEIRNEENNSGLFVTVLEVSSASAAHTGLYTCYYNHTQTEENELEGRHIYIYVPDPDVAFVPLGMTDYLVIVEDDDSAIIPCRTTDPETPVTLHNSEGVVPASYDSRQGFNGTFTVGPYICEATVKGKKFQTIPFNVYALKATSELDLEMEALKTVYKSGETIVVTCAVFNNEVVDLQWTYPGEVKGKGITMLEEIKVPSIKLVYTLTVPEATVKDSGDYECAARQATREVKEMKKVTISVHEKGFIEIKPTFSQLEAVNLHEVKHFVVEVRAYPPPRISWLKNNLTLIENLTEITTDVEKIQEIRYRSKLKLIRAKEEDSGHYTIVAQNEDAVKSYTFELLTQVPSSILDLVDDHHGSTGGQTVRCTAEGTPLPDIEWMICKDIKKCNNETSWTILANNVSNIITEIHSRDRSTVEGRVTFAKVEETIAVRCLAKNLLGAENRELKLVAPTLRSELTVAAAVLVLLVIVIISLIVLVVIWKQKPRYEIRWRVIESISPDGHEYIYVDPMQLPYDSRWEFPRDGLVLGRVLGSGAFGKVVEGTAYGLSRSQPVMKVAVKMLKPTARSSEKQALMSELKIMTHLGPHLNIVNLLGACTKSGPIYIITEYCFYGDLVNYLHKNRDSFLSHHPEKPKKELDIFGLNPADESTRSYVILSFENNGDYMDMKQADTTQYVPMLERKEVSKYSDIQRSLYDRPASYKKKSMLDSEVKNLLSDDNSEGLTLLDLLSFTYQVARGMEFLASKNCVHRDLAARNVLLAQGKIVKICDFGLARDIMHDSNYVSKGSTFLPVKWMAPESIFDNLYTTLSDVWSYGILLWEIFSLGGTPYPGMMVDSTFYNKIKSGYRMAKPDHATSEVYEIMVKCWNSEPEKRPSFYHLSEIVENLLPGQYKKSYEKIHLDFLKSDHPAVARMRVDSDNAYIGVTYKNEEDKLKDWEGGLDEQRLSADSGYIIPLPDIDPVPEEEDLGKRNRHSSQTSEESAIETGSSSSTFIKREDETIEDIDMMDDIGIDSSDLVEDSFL
Sequence of HIPK2(h) (Q9H2X6 whole entry): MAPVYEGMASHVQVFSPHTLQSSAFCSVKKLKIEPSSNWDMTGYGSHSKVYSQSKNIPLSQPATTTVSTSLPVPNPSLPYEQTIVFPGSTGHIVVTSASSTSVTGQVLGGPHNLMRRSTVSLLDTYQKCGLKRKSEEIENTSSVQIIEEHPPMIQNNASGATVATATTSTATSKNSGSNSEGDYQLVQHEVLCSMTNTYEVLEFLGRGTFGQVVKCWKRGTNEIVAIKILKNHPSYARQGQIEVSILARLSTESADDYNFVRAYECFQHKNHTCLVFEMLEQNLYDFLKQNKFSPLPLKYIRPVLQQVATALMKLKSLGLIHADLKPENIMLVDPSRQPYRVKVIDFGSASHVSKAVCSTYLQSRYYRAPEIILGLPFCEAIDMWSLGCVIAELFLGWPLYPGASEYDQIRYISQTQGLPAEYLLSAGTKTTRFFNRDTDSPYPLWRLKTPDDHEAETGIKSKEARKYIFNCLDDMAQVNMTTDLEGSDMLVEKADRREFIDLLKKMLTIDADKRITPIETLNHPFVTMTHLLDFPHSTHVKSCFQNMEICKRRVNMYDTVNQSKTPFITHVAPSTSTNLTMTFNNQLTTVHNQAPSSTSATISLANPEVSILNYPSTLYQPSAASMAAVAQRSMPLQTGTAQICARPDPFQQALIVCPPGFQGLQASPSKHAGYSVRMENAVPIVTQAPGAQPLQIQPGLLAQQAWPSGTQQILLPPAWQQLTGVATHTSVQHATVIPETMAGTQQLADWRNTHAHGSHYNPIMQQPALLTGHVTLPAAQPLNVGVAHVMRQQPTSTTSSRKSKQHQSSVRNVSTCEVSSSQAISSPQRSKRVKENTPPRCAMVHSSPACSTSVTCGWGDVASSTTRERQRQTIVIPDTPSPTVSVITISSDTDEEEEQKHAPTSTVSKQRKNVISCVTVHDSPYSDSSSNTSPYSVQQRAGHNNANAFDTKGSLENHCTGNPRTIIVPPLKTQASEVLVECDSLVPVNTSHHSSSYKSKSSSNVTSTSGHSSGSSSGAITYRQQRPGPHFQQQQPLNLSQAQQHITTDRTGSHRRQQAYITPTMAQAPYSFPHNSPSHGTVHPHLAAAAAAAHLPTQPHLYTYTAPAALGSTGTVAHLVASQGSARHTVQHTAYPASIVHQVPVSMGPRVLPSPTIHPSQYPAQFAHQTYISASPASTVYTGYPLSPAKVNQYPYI
Sequence of Aurora-C(h) (Q9UQB9 whole entry): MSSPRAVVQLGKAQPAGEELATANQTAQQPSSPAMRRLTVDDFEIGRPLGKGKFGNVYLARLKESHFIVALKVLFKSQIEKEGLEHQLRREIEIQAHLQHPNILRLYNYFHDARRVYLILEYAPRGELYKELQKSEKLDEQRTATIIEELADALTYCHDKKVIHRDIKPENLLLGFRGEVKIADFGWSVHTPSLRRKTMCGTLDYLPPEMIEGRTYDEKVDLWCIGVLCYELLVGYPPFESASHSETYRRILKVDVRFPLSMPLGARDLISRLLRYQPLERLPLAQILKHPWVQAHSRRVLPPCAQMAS
Sequence of ROCK-I(h) (Q13464 whole entry): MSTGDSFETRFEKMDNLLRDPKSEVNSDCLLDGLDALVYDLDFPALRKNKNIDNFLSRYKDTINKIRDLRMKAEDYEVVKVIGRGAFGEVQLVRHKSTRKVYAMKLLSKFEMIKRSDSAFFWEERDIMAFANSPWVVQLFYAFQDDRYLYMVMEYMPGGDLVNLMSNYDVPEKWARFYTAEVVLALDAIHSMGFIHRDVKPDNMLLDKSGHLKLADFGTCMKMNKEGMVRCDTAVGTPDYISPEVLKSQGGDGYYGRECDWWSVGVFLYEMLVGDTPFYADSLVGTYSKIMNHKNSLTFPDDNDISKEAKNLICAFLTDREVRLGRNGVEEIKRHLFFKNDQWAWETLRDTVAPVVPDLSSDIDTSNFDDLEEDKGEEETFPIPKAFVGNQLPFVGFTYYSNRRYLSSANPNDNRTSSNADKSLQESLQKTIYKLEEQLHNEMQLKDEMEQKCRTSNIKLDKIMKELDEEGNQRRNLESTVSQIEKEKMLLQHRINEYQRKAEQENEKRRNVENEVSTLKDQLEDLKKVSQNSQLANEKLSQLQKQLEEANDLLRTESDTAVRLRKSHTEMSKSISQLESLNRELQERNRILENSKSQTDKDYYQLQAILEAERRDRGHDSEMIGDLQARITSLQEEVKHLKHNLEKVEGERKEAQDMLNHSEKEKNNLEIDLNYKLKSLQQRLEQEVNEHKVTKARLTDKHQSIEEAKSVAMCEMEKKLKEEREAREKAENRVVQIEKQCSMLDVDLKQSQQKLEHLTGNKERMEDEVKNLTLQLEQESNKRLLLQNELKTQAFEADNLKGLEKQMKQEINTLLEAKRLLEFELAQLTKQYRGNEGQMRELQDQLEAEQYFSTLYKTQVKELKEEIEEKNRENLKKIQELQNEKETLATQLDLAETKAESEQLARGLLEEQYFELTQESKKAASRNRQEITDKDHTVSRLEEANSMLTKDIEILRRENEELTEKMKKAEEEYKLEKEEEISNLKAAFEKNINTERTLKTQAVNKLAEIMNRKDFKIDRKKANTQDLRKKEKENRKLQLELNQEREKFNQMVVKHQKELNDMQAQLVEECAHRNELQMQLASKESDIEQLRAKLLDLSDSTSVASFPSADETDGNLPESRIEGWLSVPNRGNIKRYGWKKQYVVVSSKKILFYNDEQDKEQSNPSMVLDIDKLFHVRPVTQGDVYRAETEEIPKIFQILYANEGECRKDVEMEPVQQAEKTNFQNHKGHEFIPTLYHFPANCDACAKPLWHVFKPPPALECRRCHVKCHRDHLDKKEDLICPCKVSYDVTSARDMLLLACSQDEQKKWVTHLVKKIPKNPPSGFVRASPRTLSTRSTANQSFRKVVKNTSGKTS
Sequence of CDK3/cyclinE(h) (Q00526 whole entry): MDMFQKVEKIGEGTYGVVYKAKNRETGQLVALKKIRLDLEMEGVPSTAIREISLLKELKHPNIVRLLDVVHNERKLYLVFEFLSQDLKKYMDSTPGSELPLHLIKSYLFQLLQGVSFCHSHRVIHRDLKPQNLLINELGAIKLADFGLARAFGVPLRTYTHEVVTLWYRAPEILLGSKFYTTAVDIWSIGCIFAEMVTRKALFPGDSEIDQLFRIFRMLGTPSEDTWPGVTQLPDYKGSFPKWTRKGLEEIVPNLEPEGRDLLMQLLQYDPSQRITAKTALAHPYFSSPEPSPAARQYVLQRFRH
Sequence of CDK3/cyclinE(h) (P24864 whole entry partner): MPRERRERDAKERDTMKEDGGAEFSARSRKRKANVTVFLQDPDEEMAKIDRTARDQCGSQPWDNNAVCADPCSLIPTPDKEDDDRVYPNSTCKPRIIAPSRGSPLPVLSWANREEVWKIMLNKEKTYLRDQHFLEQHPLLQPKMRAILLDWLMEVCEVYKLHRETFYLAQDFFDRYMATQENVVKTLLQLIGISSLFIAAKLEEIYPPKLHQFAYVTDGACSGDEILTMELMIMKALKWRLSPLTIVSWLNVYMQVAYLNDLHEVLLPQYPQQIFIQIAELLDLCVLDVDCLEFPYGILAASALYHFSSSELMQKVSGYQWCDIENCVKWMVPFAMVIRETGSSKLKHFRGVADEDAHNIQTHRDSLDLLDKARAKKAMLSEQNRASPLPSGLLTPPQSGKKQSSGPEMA
Sequence of PhKγ2(h) (P15735 whole entry): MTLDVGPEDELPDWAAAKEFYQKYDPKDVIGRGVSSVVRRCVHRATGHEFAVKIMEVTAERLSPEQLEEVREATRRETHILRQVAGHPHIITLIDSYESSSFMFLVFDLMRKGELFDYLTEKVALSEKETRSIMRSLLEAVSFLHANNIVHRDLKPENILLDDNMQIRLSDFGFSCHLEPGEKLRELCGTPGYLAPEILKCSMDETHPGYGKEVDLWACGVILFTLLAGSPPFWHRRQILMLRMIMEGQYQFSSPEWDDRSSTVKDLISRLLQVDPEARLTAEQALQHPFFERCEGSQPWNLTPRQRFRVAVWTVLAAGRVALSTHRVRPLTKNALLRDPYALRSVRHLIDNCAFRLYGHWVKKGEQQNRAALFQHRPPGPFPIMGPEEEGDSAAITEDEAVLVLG

Cc1cc2c(-c3ccc(NC(=O)[C@H](N)CC(C)(C)C)cc3C)ccnc2[nH]1 [Compound F-90, (2R)-2-Amino-4,4-dimethyl-N-[3-methyl-4-(2-methyl-1H-pyrrolo[2,3-b]pyridin-4-yl)phenyl]pentanamide]
% Activity (Plk1(h)): 111%
% Activity (TSSK3(h)): 96%
% Activity (PhKγ2(h)): 98%
% Activity (TNIK(h)): 93%
% Activity (CDK13/cyclinK(h)): 99%
% Activity (PRK1(h)): 91%
% Activity (CK1ε(h)): 96%
% Activity (RIPK1(h)): 84%
% Activity (DRAK1(h)): 80%
% Activity (Fer(h)): 103%
% Activity (EphA7(h)): 114%
% Activity (PDGFRα(h)): 116%
% Activity (PKCβI(h)): 90%
% Activity (CDK3/cyclinE(h)): 102%
% Activity (MRCKγ(h)): 98%
% Activity (LIMK1(h)): 70%
% Activity (BRK(h)): 83%
% Activity (LKB1(h)): 99%
% Activity (HIPK2(h)): 105%
% Activity (IGF-1R(h), activated): 93%
% Activity (Aurora-A(h)): 97%
% Activity (SBK1(h)): 97%
% Activity (PAK3(h)): 89%
% Activity (ROCK-I(h)): 96%
% Activity (ALK(h)): 77%
% Activity (MAPKAP-K3(h)): 125%
% Activity (ZIPK(h)): 94%
% Activity (SIK3(h)): 105%
% Activity (Pyk2(h)): 76%
% Activity (CLK1(h)): 88%
% Activity (DAPK2(h)): 109%
% Activity (Aurora-C(h)): 94%
% Activity (MAP4K5(h)): 92%
